ChEMBL document CHEMBL1201862, “PubChem BioAssay data set” (2004)
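Values below derive from 48-hour exposures of cells grown in 96-well plates, with endpoints linearly interpolated between the two concentrations bracketing the appropriate inhibition level. Here, GI50 denotes the concentration required for 50% inhibition of growth.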 Active and inactive are the calls of the source. No stated cut-off is given here; in the data, active = GI50 up to about 1.1 µM and inactive = higher.

Key:
Test in all cases: DTP human tumour cell line panel, 48 h
[1] = tested on: A549
[2] = tested on: CAKI-1
[3] = tested on: HOP-62
[4] = tested on: HOP-92
[5] = tested on: LOX IMVI
[6] = tested on: NCI-H522
[7] = tested on: OVCAR-8
[8] = tested on: RPMI-8226
[9] = tested on: RXF 393
[10] = tested on: SF-295
[11] = tested on: SF-539
[12] = tested on: SR
[13] = tested on: UACC-62
[14] = tested on: UO-31
[15] = tested on: DU-145
[16] = tested on: HCT-15
[17] = tested on: MCF7
[18] = tested on: MDA-MB-435
[19] = tested on: NCI/ADR-RES
[20] = tested on: BT-549

Row | Structure (SMILES) | GI50 [1] | GI50 [2] | GI50 [3] | GI50 [4] | GI50 [5] | GI50 [6] | GI50 [7] | GI50 [8] | GI50 [9] | GI50 [10] | GI50 [11] | GI50 [12] | GI50 [13] | GI50 [14] | GI50 [15] | GI50 [16] | GI50 [17] | GI50 [18] | GI50 [19] | GI50 [20]
1 | C=CCCCCn1c2ccccc2c2c(C)c3c[n+](C)ccc3c(C)c21 | 0.3 µM (active) | 14.3 µM (inactive) | 0.643 µM (active) | 0.237 µM (active) | 0.284 µM (active) | 0.176 µM (active) | 0.197 µM (active) | 0.212 µM (active) | 0.684 µM (active) | 0.208 µM (active) | 0.564 µM (active) | 0.284 µM (active) | 0.336 µM (active) | 5.28 µM (inactive) |  |  |  |  |  | 
2 | COc1cc2cc(C(=O)N3CC(CCl)c4ccc(O)cc43)[nH]c2c(OC)c1OC (stereo not drawn) | 0.000501 µM (active) | 0.00218 µM (active) | 0.00363 µM (active) | 0.0292 µM (active) | 0.00184 µM (active) | < 0.0001 µM (active) | 0.00132 µM (active) | 0.000556 µM (active) | < 0.0001 µM (active) | 0.000285 µM (active) | 0.00171 µM (active) | 0.0034 µM (active) | 0.00136 µM (active) | 0.0198 µM (active) | 0.00466 µM (active) | 0.00562 µM | < 0.0001 µM (active) | 0.00263 µM (active) | 0.00162 µM (active) | 
3 | c1ccc2c(C3NCCc4nc[nH]c43)cccc2c1 (stereo not drawn) | > 100 µM (inactive) | > 100 µM (inactive) | > 100 µM (inactive) | > 100 µM (inactive) | > 100 µM (inactive) | 98.4 µM (inactive) | > 100 µM (inactive) | > 100 µM (inactive) | > 100 µM (inactive) | > 100 µM (inactive) | > 100 µM (inactive) | > 100 µM (inactive) | > 100 µM (inactive) | > 100 µM (inactive) |  | > 100 µM |  |  |  | 
4 | CNC(=O)/C(C#N)=C(\N)N1CCCC1 | > 100 µM (inactive) | > 100 µM (inactive) | > 100 µM (inactive) |  |  | > 100 µM (inactive) | > 100 µM (inactive) | > 100 µM (inactive) | > 100 µM (inactive) |  | > 100 µM (inactive) | > 100 µM (inactive) | > 100 µM (inactive) | > 100 µM (inactive) | > 100 µM (inactive) | > 100 µM |  | > 100 µM (inactive) | > 100 µM (inactive) | 
5 | CC/C=C/C(=O)CC(O)(C(F)(F)F)C(F)(F)F | > 100 µM (inactive) |  | > 100 µM (inactive) | 32.4 µM (inactive) | > 100 µM (inactive) |  | > 100 µM (inactive) | 54.8 µM (inactive) | > 100 µM (inactive) | > 100 µM (inactive) | > 100 µM (inactive) | > 100 µM (inactive) | > 100 µM (inactive) | 54 µM (inactive) | > 100 µM (inactive) | > 100 µM | > 100 µM (inactive) | > 100 µM (inactive) | > 100 µM (inactive) | 
6 | CCOC(=O)c1sc2nc1CSc1sc(=S)sc1SCc1nc(sc1C(=O)OCC)-c1nc(c(C(=O)OCC)s1)CSc1sc(=S)sc1SCc1nc-2sc1C(=O)OCC | > 10 µM (inactive) | > 10 µM (inactive) | > 10 µM (inactive) | > 10 µM (inactive) | > 10 µM (inactive) | > 10 µM (inactive) | > 10 µM (inactive) | > 10 µM (inactive) | > 10 µM (inactive) | > 10 µM (inactive) | > 10 µM (inactive) | > 10 µM (inactive) | > 10 µM (inactive) | > 10 µM (inactive) |  | > 10 µM | > 10 µM (inactive) | > 10 µM (inactive) | > 10 µM (inactive) | > 10 µM (inactive)
7 | COC1=CC(=O)C2C(C1=O)[C@@H]1c3ccccc3C[C@H]21 (stereo partly drawn) | > 100 µM (inactive) | > 100 µM (inactive) | > 100 µM (inactive) | > 100 µM (inactive) | > 100 µM (inactive) | > 100 µM (inactive) | 85.3 µM (inactive) | > 100 µM (inactive) | > 100 µM (inactive) | > 100 µM (inactive) | > 100 µM (inactive) | > 100 µM (inactive) | > 100 µM (inactive) | > 100 µM (inactive) |  | > 100 µM |  |  |  | 
8 | C[C@@H]1O[C@@H](O[C@H]2CC[C@]3(C=O)[C@H]4CC[C@]5(C)[C@@H](C6=CC(=O)OC6)CC[C@]5(O)[C@@H]4CC[C@]3(O)C2)[C@H](O)[C@H](O)[C@H]1O [CONVALLATOXIN] | < 0.01 µM (active) | 1.23e-05 µM (active) | 1.05e-05 µM (active) | 4.83e-05 µM (active) | 2.93e-05 µM (active) | 9.93e-06 µM (active) | 2.94e-05 µM (active) | 4.45e-05 µM (active) | 1.67e-05 µM (active) | 2.73e-05 µM (active) | 1.83e-05 µM (active) |  | 5.85e-05 µM (active) | < 0.01 µM (active) | 6.65e-06 µM (active) | 4.69e-05 µM |  | 4.23e-05 µM (active) | 1.26e-05 µM (active) | 1.32e-05 µM (active)
9 | CN(C)C(=S)/N=c1\ssc(=S)n1Cc1cccnc1 | 4.93 µM (inactive) | 3.16 µM (inactive) | 4.91 µM (inactive) | 3.81 µM (inactive) | 4.27 µM (inactive) | 0.531 µM (active) | 3.66 µM (inactive) | 3.47 µM (inactive) | 1.47 µM (inactive) | 1.81 µM (inactive) | 4.02 µM (inactive) | 0.638 µM (active) | 2.17 µM (inactive) | 13.1 µM (inactive) |  | 1.23 µM | 2.91 µM (inactive) | 0.277 µM (active) | 1.01 µM (active) | 
10 | N#CCN(Cc1ccccc1)[C@H]1CCC[C@]1(O)/C=C/c1ccc2c(c1)OCO2 | 38.4 µM (inactive) | 36.1 µM (inactive) | 26.3 µM (inactive) | 18.2 µM (inactive) | 15.7 µM (inactive) | 17 µM (inactive) | 17.1 µM (inactive) | 19.8 µM (inactive) | 23.6 µM (inactive) | 16.4 µM (inactive) | 41.1 µM (inactive) | 17.5 µM (inactive) | 16.1 µM (inactive) | 27.2 µM (inactive) | 62.1 µM (inactive) | 22.2 µM | 18.7 µM (inactive) | 20 µM (inactive) | 19.3 µM (inactive) | 
11 | CC1CC(N)=Nc2ccccc2N1 (stereo not drawn) | > 100 µM (inactive) | > 100 µM (inactive) | > 100 µM (inactive) |  | > 100 µM (inactive) | > 100 µM (inactive) | > 100 µM (inactive) | > 100 µM (inactive) | > 100 µM (inactive) | > 100 µM (inactive) |  |  | > 100 µM (inactive) | > 100 µM (inactive) | > 100 µM (inactive) | > 100 µM |  | > 100 µM (inactive) | > 100 µM (inactive) | > 100 µM (inactive)
12 | Cc1nsc2cc(Cl)n(C)c(=O)c12 | > 100 µM (inactive) | 40.4 µM (inactive) | > 100 µM (inactive) | 59.7 µM (inactive) | > 100 µM (inactive) | 24.8 µM (inactive) | > 100 µM (inactive) | > 100 µM (inactive) | > 100 µM (inactive) |  | > 100 µM (inactive) | > 100 µM (inactive) |  | > 100 µM (inactive) |  | > 100 µM |  |  |  | 
